Measurements: patent US11633459B2, “GIP derivatives and uses thereof” (priority 2018, dated 2023)
*1 amine or outer side, *2 acyl side, *3 side chain or, on linkers, in order; H or OH if unused. Where a SMILES comes first, the peptide text is derived from it. Where no end group is shown, it is not given here. Side-chain parts run from the residue outwards. [ ]: non-standard residue; d: D form. The star is where a group is joined. X1 = O=C(O)CCCCCCCCCCCCCCCCCCC(=O)NCC1CCC(C(=O)*)CC1; C18 diacid = O=C(O)CCCCCCCCCCCCCCCCC(=O)*; γGlu = O=C(O)[C@H](CCC(=O)[*:2])N[*:1]; Nle = CCCC[C@H](N)C(=O)O; AEEA = NCCOCCOCC(=O)O; Aib = CC(C)(N)C(=O)O

Columns and labels:
human GIP receptor = biological target: T1, human GIP receptor (Homo sapiens, UniProt P48546); assay: In vitro potency, CRE luciferase reporter gene assay, whole BHK cells expressing human GIP receptor; assay type: cell-based; conditions: 0.2% HSA
T1 construct: expressed in transfected cells; host or cells: BHK cells (parent line BHKTS13), clone BHK CRE luc2P hGIPR clone #5
T1 sequence (P48546 22-466): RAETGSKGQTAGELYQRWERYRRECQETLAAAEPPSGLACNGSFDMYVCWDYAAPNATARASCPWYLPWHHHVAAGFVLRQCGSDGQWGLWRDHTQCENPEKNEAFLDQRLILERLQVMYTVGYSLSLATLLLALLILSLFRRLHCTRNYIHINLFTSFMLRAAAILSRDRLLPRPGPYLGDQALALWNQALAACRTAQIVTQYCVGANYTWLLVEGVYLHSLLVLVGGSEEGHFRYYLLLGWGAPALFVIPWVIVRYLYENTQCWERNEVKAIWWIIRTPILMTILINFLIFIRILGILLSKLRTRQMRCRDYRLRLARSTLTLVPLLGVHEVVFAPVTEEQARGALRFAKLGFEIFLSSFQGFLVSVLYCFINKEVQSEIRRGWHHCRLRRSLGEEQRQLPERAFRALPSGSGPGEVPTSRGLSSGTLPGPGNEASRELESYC
Method: (§1) In Vitro Potency (CRE Luciferase; Whole Cells)
(§2) The in vitro potency is the measure of human GIP, GLP-1 or glucagon receptor activation, respectively, in a whole cell assay.
(§3) In vitro potency was determined by measuring the response of the human GIP, GLP-1 or glucagon receptor in a reporter gene assay in individual cell lines. […] When the respective receptor is activated it results in the production of cAMP, which in turn results in the luciferase protein being expressed. When assay incubation is completed the luciferase substrate (luciferin) is added and the enzyme converts luciferin to oxyluciferin to produce bioluminescence. The luminescence is measured as the readout for the assay.
(§4) The cells were derived from a clone containing the CRE luciferase element and were established by further transfection with the respective receptor to obtain the current clone.
(§5) The cells were cultured at 5% CO2 in Cell Culture Medium. They were aliquoted and stored in liquid nitrogen. The cells were kept in passage and were seeded out the day before each assay.
(§6) The Assay Buffer consisted of 1% ovalbumin and 0.1% Pluronic F-68 in Assay Medium with the addition of human serum albumin at twice the indicated concentrations.
(§7) 1) Cells were plated at 5000 cells/well and incubated overnight.
(§8) 2) Cells were washed three times in PBS.
(§9) 3) Assay Medium (50 μl aliquot) with or without serum albumin was added to each well in the assay plate.
(§10) 4) Stocks of the test compounds and reference compounds were diluted to a concentration of 0.2 μM in Assay Buffer. […] 8) The cells were washed three times with PBS plus some liquid in each well. 9) A 100 μl aliquot of steadylite plus reagent was added to each well of the assay plate (reagent was light sensitive). 10) Each assay plate was covered with aluminum foil to protect it from light and shaken for 30 min at room temperature. 11) Each assay plate was read in a microtiter plate reader. Calculations and Results
The data from the microtiter plate reader was transferred to GraphPad Prism software. The software performs a non-linear regression (log(agonist) vs response).
A minimum of two replicates was measured for each sample. The reported values are averages of the replicates.

[1] = Pharmacokinetic study in minipigs, terminal half-life after i.v. administration; conditions: female, Göttingen, minipig, plasma, iv, 5 nmol/kg
Method: Pharmacokinetic Study in Minipigs
The purpose of this study is to determine the half-life in vivo of the derivatives of the present invention after i.v. administration to minipigs, i.e. the prolongation of their time in the body and thereby their time of action. This is done in a pharmacokinetic (PK) study, where the terminal half-life of the derivative in question is determined. By terminal half-life is generally meant the period of time it takes to halve a certain plasma concentration, measured after the initial distribution phase.
Female Göttingen minipigs were obtained from Ellegaard Göttingen Minipigs (Dalmose, Denmark) approximately 7-14 months of age and weighing from approximately 16-35 kg were used in the studies. The minipigs were housed individually and fed restrictedly once daily with SDS minipig diet (Special Diets Services, Essex, UK).
After at 3 weeks of acclimatisation two permanent central venous catheters were implanted in vena cava caudalis in each animal. The animals were allowed 1 week recovery after the surgery, and were then used for repeated pharmacokinetic studies with a suitable wash-out period between successive derivative dosing.
Blood samples (for example 0.8 ml) were collected in EDTA buffer (8 mM) and then centrifuged at 4° C. and 1942G for 10 minutes.
Individual plasma concentration-time profiles were analysed by a non-compartmental model in Phoenix WinNonLin ver. […] (Pharsight Inc., Mountain View, Calif., USA), and the resulting terminal half-lives (harmonic mean) determined.

human GLP-1 receptor = biological target: T2, human GLP-1 receptor (Homo sapiens, UniProt P43220); assay: In vitro potency, CRE luciferase reporter gene assay, whole BHK cells expressing human GLP-1 receptor; assay type: cell-based; conditions: 0.2% HSA
T2 construct: expressed in transfected cells; host or cells: BHK cells (parent line BHKTS13), clone BHK CRE luc2P hGLP-1R clone #6
Method: as §1, §2, §3, §4, §5, §6, §7, §8, §9, §10
(§11) The data from the microtiter plate reader was transferred to GraphPad Prism software. […]
(§12) A minimum of two replicates was measured for each sample. […]

human glucagon receptor = biological target: T3, human glucagon receptor (Homo sapiens, UniProt P47871); assay: In vitro potency, CRE luciferase reporter gene assay, whole BHK cells expressing human glucagon receptor; assay type: cell-based; conditions: 0.2% HSA
T3 construct: expressed in transfected cells; host or cells: BHK cells (parent line BHKTS13), clone BHK CRE luc2P hGCGR clone #18
Method: as §1, §2, §3, §4, §5, §6, §7, §8, §9, §10, §11, §12

T2 sequence (P43220 24-463): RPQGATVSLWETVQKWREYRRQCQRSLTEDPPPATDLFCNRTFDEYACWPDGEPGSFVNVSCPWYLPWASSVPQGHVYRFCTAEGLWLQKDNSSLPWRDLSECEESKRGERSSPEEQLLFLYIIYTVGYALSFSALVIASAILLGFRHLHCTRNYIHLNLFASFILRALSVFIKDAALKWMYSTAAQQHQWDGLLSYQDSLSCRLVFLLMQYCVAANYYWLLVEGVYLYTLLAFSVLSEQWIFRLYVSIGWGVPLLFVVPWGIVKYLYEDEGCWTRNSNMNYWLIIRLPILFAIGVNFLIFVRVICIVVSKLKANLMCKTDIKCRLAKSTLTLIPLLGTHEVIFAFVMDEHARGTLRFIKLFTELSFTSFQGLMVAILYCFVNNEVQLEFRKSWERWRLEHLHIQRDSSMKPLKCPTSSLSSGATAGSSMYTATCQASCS
T3 sequence (P47871 26-477): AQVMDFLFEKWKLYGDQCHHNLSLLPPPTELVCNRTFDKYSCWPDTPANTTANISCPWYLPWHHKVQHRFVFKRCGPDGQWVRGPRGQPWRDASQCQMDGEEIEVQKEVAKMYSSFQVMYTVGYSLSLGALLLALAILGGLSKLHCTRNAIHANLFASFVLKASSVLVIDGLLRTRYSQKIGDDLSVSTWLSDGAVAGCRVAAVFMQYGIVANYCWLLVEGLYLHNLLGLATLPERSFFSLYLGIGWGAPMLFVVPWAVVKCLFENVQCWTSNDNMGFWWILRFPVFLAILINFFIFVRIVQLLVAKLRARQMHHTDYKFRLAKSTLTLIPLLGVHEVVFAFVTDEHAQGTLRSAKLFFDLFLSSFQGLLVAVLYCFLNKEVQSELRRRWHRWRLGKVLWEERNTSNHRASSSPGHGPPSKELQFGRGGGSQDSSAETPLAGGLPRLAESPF

Work on `CCCC[C@H](NC(=O)[C@H](C)NC(=O)[C@@H](NC(=O)[C@H](CO)NC(=O)[C@H](Cc1ccc(O)cc1)NC(=O)[C@H](CC(=O)O)NC(=O)[C@H](CO)NC(=O)[C@@H](NC(=O)[C@H](Cc1ccccc1)NC(=O)[C@@H](NC(=O)CNC(=O)[C@H](CCC(=O)O)NC(=O)C(C)(C)NC(=O)[C@@H](N)Cc1ccc(O)cc1)[C@@H](C)O)[C@@H](C)CC)[C@@H](C)CC)C(=O)N[C@@H](CC(=O)O)C(=O)N[C@@H](CCCCN)C(=O)N[C@H](C(=O)N[C@@H](CCCNC(=N)N)C(=O)N[C@@H](CCC(N)=O)C(=O)N[C@@H](CCC(N)=O)C(=O)N[C@@H](CC(=O)O)C(=O)N[C@@H](Cc1ccccc1)C(=O)N[C@H](C(=O)N[C@@H](CCCCNC(=O)COCCOCCNC(=O)COCCOCCNC(=O)CC[C@H](NC(=O)C1CCC(CNC(=O)CCCCCCCCCCCCCCCCCCC(=O)O)CC1)C(=O)O)C(=O)N[C@@H](Cc1c[nH]c2ccccc12)C(=O)N[C@@H](CC(C)C)C(=O)N[C@@H](CC(C)C)C(=O)N[C@@H](C)C(=O)N[C@@H](CCC(N)=O)C(=O)N[C@@H](CCCCN)C(=O)NCC(=O)O)C(C)C)[C@@H](C)CC` (stereo partly drawn) [Compound 3, N{Epsilon-24}-[2-[2-[2-[[2-[2-[2-[[(4S)-4-carboxy-4-[[4-[(19-carboxynonadecanoylamino)methyl]cyclohexanecarbonyl]amino]butanoyl]amino]ethoxy]ethoxy]acetyl]amino]ethoxy]ethoxy]acetyl]-[Aib2,Nle14,Arg18,Lys24]-hGIP(1-31)] yielded an EC50 (human GIP receptor) of 0.0447 nM and a half-life [1] of 4 days.

`CCCC[C@H](NC(=O)[C@H](C)NC(=O)[C@@H](NC(=O)[C@H](CO)NC(=O)[C@H](Cc1ccc(O)cc1)NC(=O)[C@H](CC(=O)O)NC(=O)[C@H](CO)NC(=O)[C@@H](NC(=O)[C@H](Cc1ccccc1)NC(=O)[C@@H](NC(=O)CNC(=O)[C@H](CCC(=O)O)NC(=O)C(C)(C)NC(=O)[C@@H](N)Cc1ccc(O)cc1)[C@@H](C)O)[C@@H](C)CC)[C@@H](C)CC)C(=O)N[C@@H](CC(=O)O)C(=O)N[C@@H](CCCCN)C(=O)N[C@H](C(=O)N[C@@H](CCCNC(=N)N)C(=O)N[C@@H](CCC(N)=O)C(=O)N[C@@H](CCC(N)=O)C(=O)N[C@@H](CC(=O)O)C(=O)N[C@@H](Cc1ccccc1)C(=O)N[C@H](C(=O)N[C@@H](CCCCNC(=O)CC[C@H](NC(=O)CC[C@H](NC(=O)CC[C@H](NC(=O)C1CCC(CNC(=O)CCCCCCCCCCCCCCCCCCC(=O)O)CC1)C(=O)O)C(=O)O)C(=O)O)C(=O)N[C@@H](Cc1c[nH]c2ccccc12)C(=O)N[C@@H](CC(C)C)C(=O)N[C@@H](CC(C)C)C(=O)N[C@@H](C)C(=O)N[C@@H](CCC(N)=O)C(=O)N[C@@H](CCCCN)C(=O)NCC(=O)O)C(C)C)[C@@H](C)CC` (stereo partly drawn) [Compound 4, N{Epsilon-24}-[(4S)-4-carboxy-4-[[(4S)-4-carboxy-4-[[(4S)-4-carboxy-4-[[4-[(19-carboxynonadecanoylamino)methyl]cyclohexanecarbonyl]amino]butanoyl]amino]butanoyl]amino]butanoyl]-[Aib2,Nle14,Arg18,Lys24]-hGIP(1-31)] showed an EC50 (human GIP receptor) of 0.0721 nM and a half-life [1] of 5.17 days.

`CCCC[C@H](NC(=O)[C@H](C)NC(=O)[C@@H](NC(=O)[C@H](CO)NC(=O)[C@H](Cc1ccc(O)cc1)NC(=O)[C@H](CC(=O)O)NC(=O)[C@H](CO)NC(=O)[C@@H](NC(=O)[C@H](Cc1ccccc1)NC(=O)[C@@H](NC(=O)CNC(=O)[C@H](CCC(=O)O)NC(=O)C(C)(C)NC(=O)[C@@H](N)Cc1ccc(O)cc1)[C@@H](C)O)[C@@H](C)CC)[C@@H](C)CC)C(=O)N[C@@H](CC(=O)O)C(=O)N[C@@H](CCCCN)C(=O)N[C@H](C(=O)N[C@@H](CCCNC(=N)N)C(=O)N[C@@H](CCC(N)=O)C(=O)NC(C)(C)C(=O)N[C@@H](CC(=O)O)C(=O)N[C@@H](Cc1ccccc1)C(=O)N[C@H](C(=O)N[C@@H](CCCCNC(=O)CC[C@H](NC(=O)CC[C@H](NC(=O)CC[C@H](NC(=O)C1CCC(CNC(=O)CCCCCCCCCCCCCCCCCCC(=O)O)CC1)C(=O)O)C(=O)O)C(=O)O)C(=O)N[C@@H](Cc1c[nH]c2ccccc12)C(=O)N[C@@H](CC(C)C)C(=O)N[C@@H](CC(C)C)C(=O)N[C@@H](C)C(=O)N[C@@H](CCC(N)=O)C(=O)N[C@@H](CCCCN)C(=O)NCC(=O)O)C(C)C)[C@@H](C)CC` (stereo partly drawn) [Compound 12, N{Epsilon-24}-[(4S)-4-carboxy-4-[[(4S)-4-carboxy-4-[[(4S)-4-carboxy-4-[[4-[(19-carboxynonadecanoylamino)methyl]cyclohexanecarbonyl]amino]butanoyl]amino]-butanoyl]amino]butanoyl]-[Aib2,Nle14,Arg18,Aib20,Lys24]-hGIP(1-31)] (H-Y[Aib]EGTFISDYSIA[Nle]DKIRQ[Aib]DFVK([γGlu-γGlu-γGlu-X1])WLLAQKG-OH) gave an EC50 (human GIP receptor) of 0.0712 nM and a half-life [1] of 5.5 days.

In the case of `CCCC[C@H](NC(=O)[C@H](C)NC(=O)[C@@H](NC(=O)[C@H](CO)NC(=O)[C@H](Cc1ccc(O)cc1)NC(=O)[C@H](CC(=O)O)NC(=O)[C@H](CO)NC(=O)[C@@H](NC(=O)[C@H](Cc1ccccc1)NC(=O)[C@@H](NC(=O)CNC(=O)[C@H](CCC(=O)O)NC(=O)C(C)(C)NC(=O)[C@@H](Cc1ccc(O)cc1)NC(C)=O)[C@@H](C)O)[C@@H](C)CC)[C@@H](C)CC)C(=O)N[C@@H](CC(=O)O)C(=O)N[C@@H](CCCCN)C(=O)N[C@H](C(=O)N[C@@H](Cc1c[nH]cn1)C(=O)N[C@@H](CCC(N)=O)C(=O)N[C@@H](CCC(N)=O)C(=O)N[C@@H](CC(=O)O)C(=O)N[C@@H](Cc1ccccc1)C(=O)N[C@H](C(=O)N[C@@H](CCCCNC(=O)CC[C@H](NC(=O)CC[C@H](NC(=O)CC[C@H](NC(=O)C1CCC(CNC(=O)CCCCCCCCCCCCCCCCCCC(=O)O)CC1)C(=O)O)C(=O)O)C(=O)O)C(=O)N[C@@H](Cc1c[nH]c2ccccc12)C(=O)N[C@@H](CC(C)C)C(=O)N[C@@H](CC(C)C)C(=O)N[C@@H](C)C(=O)N[C@@H](CCC(N)=O)C(=O)N[C@@H](CCCCN)C(=O)N1CCC[C@H]1C(N)=O)C(C)C)[C@@H](C)CC` (stereo partly drawn) [Compound 32, N{1}-acetyl,N{Epsilon-24}-[(4S)-4-carboxy-4-[[(4S)-4-carboxy-4-[[(4S)-4-carboxy-4-[[4-[(19-carboxynonadecanoylamino)methyl]cyclohexanecarbonyl]amino]butanoyl]-amino]butanoyl]amino]butanoyl]-[D-Tyr1,Aib2, Nle14,Lys24,Pro31]-hGIP(1-31) amide] (Ac-[dY][Aib]EGTFISDYSIA[Nle]DKIHQQDFVK([γGlu-γGlu-γGlu-X1])WLLAQKP-NH2), the half-life [1] is reported as 5.04 days.

In the case of “H-Y[Aib]EGTFISDYSIA[Nle]DKIHQQDFVK([γGlu-γGlu-γGlu-C18 diacid])WLLAQKGKEDDWKHNITQ [Compound 39, N{Epsilon-24}-[(4S)-4-carboxy-4-[[(4S)-4-carboxy-4-[[(4S)-4-carboxy-4-(17-carboxyheptadecanoylamino)butanoyl]amino]butanoyl]amino]butanoyl]-[Aib2,Nle14,Lys24,Glu33,Asp34]-hGIP]”, the EC50 (human GLP-1 receptor) is reported as over 100 nM, the EC50 (human glucagon receptor) is reported as over 100 nM and the EC50 (human GIP receptor) is reported as 0.0059 nM.

Molecule “H-Y[Aib]EGTFISDYSIA[Nle]DKIHQQDFVK([γGlu-γGlu-γGlu-C18 diacid])WLLAQKGKEEDWKHNITQ [Compound 38, N{Epsilon-24}-[(4S)-4-carboxy-4-[[(4S)-4-carboxy-4-[[(4S)-4-carboxy-4-(17-carboxyheptadecanoylamino)butanoyl]amino]butanoyl]amino]butanoyl]-[Aib2,Nle14,Lys24,Glu33,Glu34]-hGIP]” has an EC50 (human GLP-1 receptor) of over 100 nM, an EC50 (human glucagon receptor) of over 100 nM and an EC50 (human GIP receptor) of 0.009 nM.

For “Y[Aib]EGTFISDYSIA[Nle]DKIHQQDFVK([AEEA-AEEA-γGlu-C18 diacid])WLLAQKGKEDDWKHNITQ [Compound 36, N{Epsilon-24}-[2-[2-[2-[[2-[2-[2-[[(4S)-4-carboxy-4-(17-carboxyheptadecanoylamino)butanoyl]amino]ethoxy]ethoxy]acetyl]amino]ethoxy]ethoxy]acetyl]-[Aib2,Nle14,Lys24,Glu33,Asp34]-hGIP]”, the EC50 (human GLP-1 receptor) was over 100 nM, the EC50 (human glucagon receptor) was over 100 nM and the EC50 (human GIP receptor) was 0.00597 nM.
